Measured values: ChEMBL document CHEMBL6109113, “Design, synthesis, and biological evaluation of novel PROTACs compounds with good ERα degradation ability” (Bioorg Med Chem, 2025)
Each block holds one molecule with its values, some of them ahead of it. Calls of active or inactive are those of the source. The rule behind the calls is not given here.

Experiments:
MCF7 [1] = test: Antiproliferative activity against human MCF7 cells assessed as reduction in cell viability measured after 7 days by celltiter-glo luminescence assay; format: functional, cell-based; details: for IC50: MCF7, 168 h; for Activity: time 7.0 day
MCF7 [2] = test: Protac activity at VHL/ER in human MCF7 cells assessed as induction of ER degradation at 1 uM measured after 24 hrs by Western blot analysis; format: cell-based
[3] = Observed apparent […] clearance in CD-1 mouse at 2 mg/kg, ip by LC-MS/MS analysis; format: ADME, organism-based; details: in vivo
[4] = Tmax in CD-1 mouse at 2 mg/kg, ip by LC-MS/MS analysis; format: ADME, organism-based; details: in vivo
[5] = Cmax in CD-1 mouse at 2 mg/kg, ip by LC-MS/MS analysis; format: ADME, organism-based; details: in vivo
[6] = target: T1, Protein cereblon/Estrogen receptor (Homo sapiens, UniProt P03372+Q96SW2); test: Protac activity at CRBN/ER in human MCF7 cells assessed as induction of ER degradation measured after 24 hrs by Western blot analysis; format: cell-based
[7] = target: T1, Protein cereblon/Estrogen receptor; test: Protac activity at CRBN/ER in human MCF7 cells assessed as induction of ER degradation at 1 uM measured after 24 hrs by Western blot analysis; format: cell-based
Target sequence in this assay (P03372 whole entry, looked up): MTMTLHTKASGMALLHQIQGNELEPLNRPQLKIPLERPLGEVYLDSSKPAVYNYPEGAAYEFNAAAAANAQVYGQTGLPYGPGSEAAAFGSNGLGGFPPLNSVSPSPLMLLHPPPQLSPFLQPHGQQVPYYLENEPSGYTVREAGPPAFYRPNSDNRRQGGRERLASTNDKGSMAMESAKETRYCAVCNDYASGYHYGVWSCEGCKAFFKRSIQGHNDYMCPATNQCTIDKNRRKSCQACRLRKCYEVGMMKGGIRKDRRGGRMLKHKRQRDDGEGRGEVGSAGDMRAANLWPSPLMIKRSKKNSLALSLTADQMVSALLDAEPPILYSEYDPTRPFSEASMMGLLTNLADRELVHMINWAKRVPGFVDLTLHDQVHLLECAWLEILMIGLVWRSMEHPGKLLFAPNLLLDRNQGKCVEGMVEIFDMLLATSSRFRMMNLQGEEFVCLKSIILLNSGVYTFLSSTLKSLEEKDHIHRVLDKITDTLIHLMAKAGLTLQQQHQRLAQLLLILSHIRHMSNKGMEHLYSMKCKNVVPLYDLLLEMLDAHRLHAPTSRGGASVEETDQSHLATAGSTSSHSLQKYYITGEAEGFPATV
Target sequence in this assay (Q96SW2 whole entry, looked up): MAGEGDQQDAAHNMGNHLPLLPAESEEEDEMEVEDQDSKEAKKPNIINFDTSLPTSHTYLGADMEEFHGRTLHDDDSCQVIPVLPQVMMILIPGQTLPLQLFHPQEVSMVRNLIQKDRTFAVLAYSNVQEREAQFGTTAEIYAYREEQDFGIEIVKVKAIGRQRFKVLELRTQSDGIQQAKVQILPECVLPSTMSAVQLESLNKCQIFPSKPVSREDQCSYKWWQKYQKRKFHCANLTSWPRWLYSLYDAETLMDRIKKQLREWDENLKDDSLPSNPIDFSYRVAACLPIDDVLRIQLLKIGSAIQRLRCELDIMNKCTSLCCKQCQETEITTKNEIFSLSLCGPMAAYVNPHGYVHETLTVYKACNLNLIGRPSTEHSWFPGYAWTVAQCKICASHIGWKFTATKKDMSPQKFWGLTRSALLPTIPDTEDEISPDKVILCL

[8] = Toxicity in CD-1 mouse assessed as adverse effect at 2 mg/kg, ip; format: organism-based; details: in vivo
[9] = Half life in CD-1 mouse at 2 mg/kg, ip by LC-MS/MS analysis; format: ADME, organism-based; details: in vivo
[10] = target: T1, Protein cereblon/Estrogen receptor; test: Protac activity at CRBN/ER in human MCF7 cells assessed as induction of ER degradation at 10 uM measured after 24 hrs by Western blot analysis; format: cell-based
Target sequence in this assay (P03372 whole entry, looked up): as the sequence (P03372 whole entry, looked up) above
Target sequence in this assay (Q96SW2 whole entry, looked up): as the sequence (Q96SW2 whole entry, looked up) above

- IC50 (MCF7 [1]): 80.2 nM
SMILES: COC(=O)c1ccc2c(c1)CCCC(c1ccc(Cl)cc1Cl)=C2c1ccc(OC2CCN(CCCNC(=O)CN3CCN(C(=O)CNc4cccc5c4CN(C4CCC(=O)NC4=O)C5=O)CC3)C2)cc1 (centres undefined)
- Activity (MCF7 [1]): Dose-dependent-effect

- IC50 (MCF7 [1]): 30.2 nM
- CL/F [3]: 25.8 mL/min/kg
- Tmax [4]: 0.83 h
- Cmax [5]: 677 ng/mL
- Activity [6]: Dose-dependent-effect
- DC50 [6]: 95 nM
- Activity [7]: Active
- half-life [9]: 11.2 h
- Activity [10]: inactive
SMILES: COC(=O)c1ccc2c(c1)CCCC(c1ccc(Cl)cc1Cl)=C2c1ccc(N2CCN(CC3CCN(CC4CCN(C(=O)CNc5ccc6c(c5)C(=O)N(C5CCC(=O)NC5=O)C6)CC4)CC3)CC2)cc1 (centres undefined)
- Activity (MCF7 [1]): Dose-dependent-effect
- Activity [8]: Non-toxic

- Activity [7]: Active
SMILES: COC(=O)c1ccc2c(c1)CCCC(c1ccc(Cl)cc1Cl)=C2c1ccc(N2CCC(CNCCOCCCOCCCOCCNC(=O)COc3ccc4c(c3)C(=O)N(C3CCC(=O)NC3=O)C4=O)CC2)cc1 (centres undefined)

- IC50 (MCF7 [1]): 772 nM
SMILES: COC(=O)c1ccc2c(c1)CCCC(c1ccc(Cl)cc1Cl)=C2c1ccc(OC2CCN(CCCNC(=O)C3CCN(C4CCN(C(=O)CNc5cccc6c5CN(C5CCC(=O)NC5=O)C6=O)CC4)CC3)C2)cc1 (centres undefined)
- Activity (MCF7 [1]): Dose-dependent-effect

More lines, now with the values behind:

SMILES: Cc1ncsc1-c1ccc([C@H](C)NC(=O)[C@@H]2C[C@@H](O)CN2C(=O)[C@@H](NCC2CCN(c3ccc(C4=C(c5ccc(Cl)cc5Cl)CCCc5cc(C(=O)O)ccc54)cc3)CC2)C(C)(C)C)cc1
- Activity (MCF7 [2]): Not active; Degradation Ability Was Poorer When Compared With Compounds Whose E3 Ligase Ligand Was Crbn

SMILES: COC(=O)c1ccc2c(c1)CCCC(c1ccc(Cl)cc1Cl)=C2c1ccc(N2CCC(CN[C@H](C(=O)N3C[C@H](O)C[C@H]3C(=O)N[C@@H](C)c3ccc(-c4scnc4C)cc3)C(C)(C)C)CC2)cc1
- Activity (MCF7 [2]): Not active; Degradation Ability Was Poorer When Compared With Compounds Whose E3 Ligase Ligand Was Crbn

SMILES: COC(=O)c1ccc2c(c1)CCCC(c1ccc(Cl)cc1Cl)=C2c1ccc(OC2CCN(CCCN[C@H](C(=O)N3C[C@H](O)C[C@H]3C(=O)N[C@@H](C)c3ccc(-c4scnc4C)cc3)C(C)(C)C)C2)cc1 (some centres undefined)
- Activity (MCF7 [2]): Not active; Degradation Ability Was Poorer When Compared With Compounds Whose E3 Ligase Ligand Was Crbn

SMILES: C[C@]12CC[C@@H]3c4ccc(O)cc4C[C@@H](CCCCCCCCC[S+]([O-])CCCC(F)(F)C(F)(F)F)[C@H]3[C@@H]1CC[C@@H]2O (some centres undefined) [FULVESTRANT]
- IC50 (MCF7 [1]): < 0.5 nM
- CL/F [3]: 45.8 mL/min/kg
- Tmax [4]: 0.83 h
- Cmax [5]: 237 ng/mL
- half-life [9]: 1.47 h
